Read-outs that look alike come from different tables or passages of the source.
Legend:
mouse PXR = molecular target: T1, mouse PXR (Mus musculus, UniProt O54915); assay: Transfection-based reporter assay in CV-1 cells, mouse PXR; settings: 50 μM, tamoxifen 5 μM (FIG. 7B)
T1 sequence (O54915 1-431): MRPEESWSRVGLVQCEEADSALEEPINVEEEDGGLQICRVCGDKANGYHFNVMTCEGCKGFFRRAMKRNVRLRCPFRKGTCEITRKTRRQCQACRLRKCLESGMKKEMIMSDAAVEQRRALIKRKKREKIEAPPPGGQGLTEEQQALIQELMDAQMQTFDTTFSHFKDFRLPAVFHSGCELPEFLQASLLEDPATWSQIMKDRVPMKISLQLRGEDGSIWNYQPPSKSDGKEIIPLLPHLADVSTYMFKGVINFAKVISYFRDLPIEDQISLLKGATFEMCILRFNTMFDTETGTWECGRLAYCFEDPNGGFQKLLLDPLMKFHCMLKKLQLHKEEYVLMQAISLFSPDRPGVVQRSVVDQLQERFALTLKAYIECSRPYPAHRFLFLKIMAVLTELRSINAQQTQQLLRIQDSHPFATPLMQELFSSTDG
From the text: FIGS. 7A-C are bar graphs illustrating the ability of a panel of compounds to activate a representative of three members of the nuclear receptor superfamily, human SXR (FIG. 7A); mouse PXR (FIG. 7B); and human estrogen receptor alpha (hERα; FIG. 7C).

SXR [1] = molecular target: T2, SXR (Homo sapiens, UniProt O75469)
T2 sequence (O75469 1-434): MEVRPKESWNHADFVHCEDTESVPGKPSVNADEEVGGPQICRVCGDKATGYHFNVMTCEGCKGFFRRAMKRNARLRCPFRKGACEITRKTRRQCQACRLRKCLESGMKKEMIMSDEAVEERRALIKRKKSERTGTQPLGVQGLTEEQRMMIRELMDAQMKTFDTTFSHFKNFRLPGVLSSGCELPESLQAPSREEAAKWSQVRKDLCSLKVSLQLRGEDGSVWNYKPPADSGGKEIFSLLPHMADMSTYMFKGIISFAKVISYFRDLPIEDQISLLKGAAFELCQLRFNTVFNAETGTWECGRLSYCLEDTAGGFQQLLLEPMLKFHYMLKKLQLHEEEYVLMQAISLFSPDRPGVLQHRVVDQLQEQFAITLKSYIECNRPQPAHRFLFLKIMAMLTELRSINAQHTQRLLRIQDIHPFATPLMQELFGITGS
Experimental: (§1) The PCR-amplified sequences and target mutagenesis were confirmed by DNA sequencing.
(§2) All compounds were purchased from Sigma.
(§3) A panel of natural and synthetic steroid and nonsteroid compounds were tested for their ability to activate SXR and/or PXR in transfection-based assays using primary rat hepatocytes as recipient cells and the cellular promoters of the rat CYP3A23 gene or the human CYP3A4 gene as reporters.

endogenous PXR [2] = molecular target: T3, endogenous PXR (Rattus norvegicus, UniProt Q9R1A7); settings: hepatocytes
T3 sequence (Q9R1A7 1-431): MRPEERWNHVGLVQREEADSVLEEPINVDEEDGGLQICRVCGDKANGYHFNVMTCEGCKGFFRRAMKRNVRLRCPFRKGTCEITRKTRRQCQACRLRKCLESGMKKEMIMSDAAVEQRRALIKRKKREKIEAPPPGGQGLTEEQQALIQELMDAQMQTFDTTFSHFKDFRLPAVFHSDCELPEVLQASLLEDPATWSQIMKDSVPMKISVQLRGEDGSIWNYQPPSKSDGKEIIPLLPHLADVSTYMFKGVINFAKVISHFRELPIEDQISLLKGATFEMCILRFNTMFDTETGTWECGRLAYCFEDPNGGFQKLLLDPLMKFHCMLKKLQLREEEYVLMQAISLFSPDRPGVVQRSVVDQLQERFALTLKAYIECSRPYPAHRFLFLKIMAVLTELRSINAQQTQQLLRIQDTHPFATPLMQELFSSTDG
Experimental: as §1, §2, §3

endogenous PXR [3] = molecular target: T3, endogenous PXR; assay: Human CYP3A4 cellular promoter reporter in primary rat hepatocytes, endogenous receptor; settings: rodent cellular environment (FIG. 8B)
From the text: as §1, §2

CYP3A11 gene = settings: single dose 24 h before sacrifice
Experimental: The animals were allowed free access to food and water at all times. […] When necessary, mice were treated with a single intraperitoneal injection of DEX (50 mg/kg), PCN (40 mg/kg), or CTZ (50 mg/kg).
To detect specific transcripts, [^32P]-cDNA probes labeled by Random Primer Labeling Kit (Boringher) were hybridized to the membranes. The probe used to detect transgene contains both the SXR cDNA and the SV40 sequences. […] The filters were subsequently stripped and rehybridized with a murine glyceraldehyde-3-phosphate dehydrogenase (GAPDH) cDNA probe for RNA loading normalization.
Tissues were harvested 24 h later and subjected to Northern blot analysis.

SXR [4] = molecular target: T4, SXR (Homo sapiens, UniProt O75469); remark: listed apart in the source
T4 sequence (O75469 1-434): T2 sequence (O75469 1-434)
T4 sequence (P19793 1-462 partner): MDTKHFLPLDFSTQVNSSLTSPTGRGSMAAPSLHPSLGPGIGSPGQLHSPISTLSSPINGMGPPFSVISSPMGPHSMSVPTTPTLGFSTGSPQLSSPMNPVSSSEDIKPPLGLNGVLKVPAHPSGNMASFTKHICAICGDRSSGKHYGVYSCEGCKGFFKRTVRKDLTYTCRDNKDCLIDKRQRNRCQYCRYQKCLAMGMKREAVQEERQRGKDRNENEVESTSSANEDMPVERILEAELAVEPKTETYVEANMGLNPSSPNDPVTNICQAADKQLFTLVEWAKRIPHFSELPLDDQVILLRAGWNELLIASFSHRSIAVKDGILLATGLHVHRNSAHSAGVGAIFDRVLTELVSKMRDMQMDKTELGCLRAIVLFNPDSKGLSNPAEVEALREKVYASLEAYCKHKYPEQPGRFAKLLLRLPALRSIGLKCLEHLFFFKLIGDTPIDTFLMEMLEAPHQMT
From the text: (§4) Thus, the protein coding region of SXR was PCR amplified and subcloned into NcoI and BamH1 sites of the vector pCDG1 (see Blumberg et al., supra). During this process the putative initiator Leu was converted to Met with a Kozak consensus sequence CCATGG.

SXR [5] = molecular target: T4, SXR; assay: Transfection-based reporter assay in CV-1 cells, GAL4-SXR or full-length SXR; set-up: Activation of SXR response elements (DR-3, DR-4, DR-5) by full-length SXR: dose or concentration left out as unconfirmed; settings: for Activation of SXR in transfection-based assays: GAL4-SXR LBD chimera or full-length SXR, CV-1 cells, steroids at high doses, up to 50 mM [sic]; for Activation of SXR response elements (DR-3, DR-4, DR-5) by full-length SXR: cotransfection, panel of steroids as printed (FIG. 4)
From the text: as §4

[6] = clinical trials, of 2510 patients; cited from earlier work

CC(=O)[C@H]1[C@H](C#N)C[C@H]2[C@@H]3CC=C4C[C@@H](O)CC[C@]4(C)[C@H]3CC[C@@]21C [PCN, pregnenolone-16-carbonitrile]
Activation of mouse PXR (mouse PXR): preferentially activated
Activation of CYP3A23 promoter reporter with mutated DR-3 element (DR3/M1, DR3/M2) (SXR [1]): abolished
Inducibility of CYP3A23 promoter reporter with DR-3 replaced by IR-6 element (DR3/IR6) (SXR [1]): rescueS the inducibility
Induction of CYP3A23 promoter reporter with co-transfection of SXR (SXR [1]): remained unchanged
Activation of CYP3A23 promoter reporter in the absence of SXR (endogenous PXR [2]): most potent and efficacious tested activators
Activation of human CYP3A4 promoter reporter via endogenous PXR (endogenous PXR [3]): can be activated
Induction of liver CYP3A11 expression in Alb-SXR transgenic mice (CYP3A11 gene; RIF 5 mg/kg, BRL 20 mg/kg, troglitazone and ciglitazone 150 mg/kg by gavage, CTZ 50 mg/kg, PCN 40 mg/kg i.p.): equally efficacious CYP3A11 inducer
Induction of liver CYP3A11 expression in wild type / nontransgenic mice (CYP3A11 gene; same doses as in transgenic mice): equally efficacious CYP3A11 inducer
Activation of human SXR by compounds known to induce CYP3A4 (SXR [4]): weak activator
Activation of SXR in transfection-based assays (SXR [5]): activated
Activation of SXR response elements (DR-3, DR-4, DR-5) by full-length SXR (SXR [5]): among the best activators

C[C@]12CC[C@@H]3c4ccc(O)cc4CC[C@H]3[C@@H]1CC[C@@H]2O [estradiol, 17β-estradiol]
Activation of mouse PXR (mouse PXR): similarly activated
Induction of CYP3A23 promoter reporter with co-transfection of SXR (SXR [1]): significant induction
Activation of human SXR by compounds known to induce CYP3A4 (SXR [5]; 50 μM, tamoxifen 5 μM (FIG. 7A)): most potent activators
Activation of SXR in transfection-based assays (SXR [5]): remarkably effective activators
Activation of SXR response elements (DR-3, DR-4, DR-5) by full-length SXR (SXR [5]): among the best activators

C[C@]12CC[C@H]3[C@@H](CCC4=CC(=O)CC[C@@]43C)[C@@H]1CC[C@@H]2O [testosterone]
Activation of mouse PXR (mouse PXR): similarly activated
Activation of SXR in transfection-based assays (SXR [4]): activated

Cc1c(C)c2c(c(C)c1O)CCC(C)(COc1ccc(CC3SC(=O)NC3=O)cc1)O2 (stereo not shown) [troglitazone]
Incidence of hepatotoxicity (alanine aminotransferase level > three times the upper limit of normal) [6]: 1.9%
